Test results reported in US8952157B2, “Apoptosis-inducing agents for the treatment of cancer and immune and autoimmune diseases” (AbbVie Inc., priority 2008, dated 2015).
pKi: −log10 of the molar value.

Each compound was assayed against GST-Bcl-2 (Homo sapiens (Human), UniProt P10415) (assay: Time Resolved-Fluorescence Resonance Energy Transfer (TR-FRET) Bcl-2 binding assay). Conditions: GST-Bcl-2 1 nM, F-Bak peptide probe 100 nM, Tb-anti-GST antibody 1 nM; Ki by Wang's equation.
How it was run: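 Competition TR-FRET: GST-Bcl-2 with fluorescent Bak peptide probe and Tb-anti-GST antibody, compounds serially diluted from 50 μM (2× start, 10% DMSO).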

Chain of GST-Bcl-2 (P10415 whole entry): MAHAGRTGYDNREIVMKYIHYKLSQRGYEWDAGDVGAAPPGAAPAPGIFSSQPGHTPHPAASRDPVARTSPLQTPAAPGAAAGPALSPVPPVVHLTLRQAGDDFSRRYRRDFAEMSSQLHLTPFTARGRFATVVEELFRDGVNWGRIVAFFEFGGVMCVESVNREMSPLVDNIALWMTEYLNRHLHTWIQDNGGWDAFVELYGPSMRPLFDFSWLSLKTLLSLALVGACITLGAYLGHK

Q: With `CN1CCC(Nc2ccc(S(=O)(=O)NC(=O)c3ccc(N4CCN(CC5=C(c6ccc(Cl)cc6)CC(C)(C)CC5)CC4)cc3Oc3cccc(F)c3F)cc2[N+](=O)[O-])CC1` [Example 45, 4-(4-((2-(4-chlorophenyl)-4,4-dimethylcyclohex-1-en-1-yl)methyl)piperazin-1-yl)-2-(2,3-difluorophenoxy)-N-((4-((1-methylpiperidin-4-yl)amino)-3-nitrophenyl)sulfonyl)benzamide] as the compound, how does the pKi read?
A: Its pKi is 10.33.

Q: How did the pKi turn out when `CN(C)CCCNc1ccc(S(=O)(=O)NC(=O)c2ccc(N3CCN(Cc4ccccc4-c4ccc(Cl)cc4)CC3)cc2Oc2cccc(OCc3ccccc3)c2)cc1[N+](=O)[O-]` [Example 92, 2-(3-(benzyloxy)phenoxy)-4-(4-((4′-chloro-1,1′-biphenyl-2-yl)methyl)piperazin-1-yl)-N-((4-((3-(dimethylamino)propyl)amino)-3-nitrophenyl)sulfonyl)benzamide] was run?
A: Its pKi is 8.59.

Q: How did the pKi turn out when `CN(C)Cc1ccc(Oc2cc(N3CCN(Cc4ccccc4-c4ccc(Cl)cc4)CC3)ccc2C(=O)NS(=O)(=O)c2ccc(NCC3CCOCC3)c([N+](=O)[O-])c2)cc1` [Example 75, 4-(4-((4′-chloro-1,1′-biphenyl-2-yl)methyl)piperazin-1-yl)-2-(4-((dimethylamino)methyl)phenoxy)-N-((3-nitro-4-((tetrahydro-2H-pyran-4-ylmethyl)amino)phenyl)sulfonyl)benzamide] was run?
A: The pKi was 7.11.

Q: With `CN1CCC(Nc2ccc(S(=O)(=O)NC(=O)c3ccc(N4CCN(CC5=C(c6ccc(Cl)cc6)CC(C)(C)CC5)CC4)cc3Oc3cc(F)cc(F)c3Cl)cc2[N+](=O)[O-])CC1` [Example 165, 2-(2-chloro-3,5-difluorophenoxy)-4-(4-{[2-(4-chlorophenyl)-4,4-dimethylcyclohex-1-en-1-yl]methyl}piperazin-1-yl)-N-({4-[(1-methylpiperidin-4-yl)amino]-3-nitrophenyl}sulfonyl)benzamide] as the compound, how does the pKi read?
A: Its pKi is 9.92.

Q: How did the pKi turn out when `O=C(NS(=O)(=O)c1ccc(NCC2CCOCC2)c([N+](=O)[O-])c1)c1ccc(N2CCN(Cc3ccccc3-c3ccc(Cl)cc3)CC2)cc1Oc1ccc2[nH]cc(CCCN3CCOCC3)c2c1` [Example 74, 4-(4-((4′-chloro-1,1′-biphenyl-2-yl)methyl)piperazin-1-yl)-2-((3-(3-morpholin-4-ylpropyl)-1H-indol-5-yl)oxy)-N-((3-nitro-4-((tetrahydro-2H-pyran-4-ylmethyl)amino)phenyl)sulfonyl)benzamide] was run?
A: The pKi was 6.72.

Q: `CN1CCN(Nc2ccc(S(=O)(=O)NC(=O)c3ccc(N4CCN(CC5=C(c6ccc(Cl)cc6)CC(C)(C)CC5)CC4)cc3Oc3cccc4c3CC(=O)N4)cc2[N+](=O)[O-])CC1` [Example 287, 4-(4-{[2-(4-chlorophenyl)-4,4-dimethylcyclohex-1-en-1-yl]methyl}piperazin-1-yl)-N-({4-[(4-methylpiperazin-1-yl)amino]-3-nitrophenyl}sulfonyl)-2-[(2-oxo-2,3-dihydro-1H-indol-4-yl)oxy]benzamide] was tested. Which pKi did it give?
A: The pKi was 9.88.

Q: With `CC1(C)CCC(CN2CCN(c3ccc(C(=O)NS(=O)(=O)c4ccc(NCC5CCOCC5)c([N+](=O)[O-])c4)c(Oc4cncc(Br)c4)c3)CC2)=C(c2ccc(Cl)cc2)C1` [Example 274, 2-[(5-bromopyridin-3-yl)oxy]-4-(4-{[2-(4-chlorophenyl)-4,4-dimethylcyclohex-1-en-1-yl]methyl}piperazin-1-yl)-N-({3-nitro-4-[(tetrahydro-2H-pyran-4-ylmethyl)amino]phenyl}sulfonyl)benzamide] as the compound, how does the pKi read?
A: Its pKi is 9.03.

Q: `CN1CCC(Nc2ccc(S(=O)(=O)NC(=O)c3ccc(N4CCN(CC5=C(c6ccc(Cl)cc6)CC(C)(C)OC5)CC4)cc3Oc3ccccc3Cl)cc2[N+](=O)[O-])CC1` [Example 38, 2-(2-chlorophenoxy)-4-(4-((4-(4-chlorophenyl)-6,6-dimethyl-5,6-dihydro-2H-pyran-3-yl)methyl)piperazin-1-yl)-N-((4-((1-methylpiperidin-4-yl)amino)-3-nitrophenyl)sulfonyl)benzamide] was tested. Which pKi did it give?
A: Its pKi is 10.89.

Q: `CN(C)CCCc1c[nH]c2cccc(Oc3cc(N4CCN(CC5=C(c6ccc(Cl)cc6)CC(C)(C)CC5)CC4)ccc3C(=O)NS(=O)(=O)c3ccc(NCC4CCOCC4)c([N+](=O)[O-])c3)c12` [Example 339, 4-(4-{[2-(4-chlorophenyl)-4,4-dimethylcyclohex-1-en-1-yl]methyl}piperazin-1-yl)-2-({3-[3-(dimethylamino)propyl]-1H-indol-4-yl}oxy)-N-({3-nitro-4-[(tetrahydro-2H-pyran-4-ylmethyl)amino]phenyl}sulfonyl)benzamide] was tested. Which pKi did it give?
A: The pKi was 10.24.

Q: With `CC1(C)CCC(CN2CCN(c3ccc(C(=O)NS(=O)(=O)c4ccc(NC5CCN(C6CCOCC6)CC5)c([N+](=O)[O-])c4)c(Oc4ccnc(NC(=O)OC(C)(C)C)c4)c3)CC2)=C(c2ccc(Cl)cc2)C1` [Example 271, tert-butyl 4-(5-(4-{[2-(4-chlorophenyl)-4,4-dimethylcyclohex-1-en-1-yl]methyl}piperazin-1-yl)-2-{[({3-nitro-4-[(1-tetrahydro-2H-pyran-4-ylpiperidin-4-yl)amino]phenyl}sulfonyl)amino]carbonyl}phenoxy)pyridin-2-ylcarbamate] as the compound, how does the pKi read?
A: The pKi was 8.72.

Q: `CN1CCC(Nc2ccc(S(=O)(=O)NC(=O)c3ccc(N4CCN(CC5=C(c6ccc(Cl)cc6)CC(C)(C)CC5)CC4)cc3Oc3cc(F)cc4[nH]ccc34)cc2[N+](=O)[O-])CC1` [Example 209, 4-(4-{[2-(4-chlorophenyl)-4,4-dimethylcyclohex-1-en-1-yl]methyl}piperazin-1-yl)-2-[(6-fluoro-1H-indol-4-yl)oxy]-N-({4-[(1-methylpiperidin-4-yl)amino]-3-nitrophenyl}sulfonyl)benzamide] was tested. Which pKi did it give?
A: The pKi was greater than 11.00.

Q: `CC1(C)CCC(CN2CCN(c3ccc(C(=O)NS(=O)(=O)c4ccc(NCCN5CCOCC5)c([N+](=O)[O-])c4)c(Oc4cccc(F)c4F)c3)CC2)=C(c2ccc(Cl)cc2)C1` [Example 135, 4-(4-{[2-(4-chlorophenyl)-4,4-dimethylcyclohex-1-en-1-yl]methyl}piperazin-1-yl)-2-(2,3-difluorophenoxy)-N-({4-[(2-morpholin-4-ylethyl)amino]-3-nitrophenyl}sulfonyl)benzamide] was tested. Which pKi did it give?
A: The pKi was 10.17.

Q: How did the pKi turn out when `CC1(C)CCC(CN2CCN(c3ccc(C(=O)NS(=O)(=O)c4ccc(NCC5CCC(F)(F)CC5)c([N+](=O)[O-])c4)c(Oc4cc5cc[nH]c5cc4F)c3)CC2)=C(c2ccc(Cl)cc2)C1` [Example 411, 4-(4-{[2-(4-chlorophenyl)-4,4-dimethylcyclohex-1-en-1-yl]methyl}piperazin-1-yl)-N-[(4-{[(4,4-difluorocyclohexyl)methyl]amino}-3-nitrophenyl)sulfonyl]-2-[(6-fluoro-1H-indol-5-yl)oxy]benzamide] was run?
A: Its pKi is 7.67.

Q: How did the pKi turn out when `CN1CCC(Nc2ccc(S(=O)(=O)NC(=O)c3ccc(N4CCN(CC5=C(c6ccc(Cl)cc6)CCCCC5)CC4)cc3Oc3ccccc3Cl)cc2[N+](=O)[O-])CC1` [Example 56, 2-(2-chlorophenoxy)-4-(4-((2-(4-chlorophenyl)cyclohept-1-en-1-yl)methyl)piperazin-1-yl)-N-((4-((1-methylpiperidin-4-yl)amino)-3-nitrophenyl)sulfonyl)benzamide] was run?
A: The pKi was 9.97.

Q: How did the pKi turn out when `CN1CCN(Nc2ccc(S(=O)(=O)NC(=O)c3ccc(N4CCN(CC5=C(c6ccc(Cl)cc6)CC(C)(C)CC5)CC4)cc3Oc3cccc(Cl)c3)cc2[N+](=O)[O-])CC1` [Example 199, 2-(3-chlorophenoxy)-4-(4-{[2-(4-chlorophenyl)-4,4-dimethylcyclohex-1-en-1-yl]methyl}piperazin-1-yl)-N-({4-[(4-methylpiperazin-1-yl)amino]-3-nitrophenyl}sulfonyl)benzamide] was run?
A: Its pKi is 9.61.

Q: How did the pKi turn out when `O=C(NS(=O)(=O)c1ccc(NCCCN2CCOCC2)c([N+](=O)[O-])c1)c1ccc(N2CCN(Cc3ccccc3-c3ccc(Cl)cc3)CC2)cc1Oc1ccc(Cl)cc1` [Example 13, 4-(4-((4′-chloro-1,1′-biphenyl-2-yl)methyl)piperazin-1-yl)-2-(4-chlorophenoxy)-N-((4-((3-morpholin-4-ylpropyl)amino)-3-nitrophenyl)sulfonyl)benzamide] was run?
A: The pKi was 8.79.

Q: With `CC1(C)CCC(CN2CCN(c3ccc(C(=O)NS(=O)(=O)c4ccc(NCC5CCOCC5)c([N+](=O)[O-])c4)c(Oc4cnc(N)c(F)c4)c3)CC2)=C(c2ccc(Cl)cc2)C1` [Example 302, 2-[(6-amino-5-fluoropyridin-3-yl)oxy]-4-(4-{[2-(4-chlorophenyl)-4,4-dimethylcyclohex-1-en-1-yl]methyl}piperazin-1-yl)-N-({3-nitro-4-[(tetrahydro-2H-pyran-4-ylmethyl)amino]phenyl}sulfonyl)benzamide] as the compound, how does the pKi read?
A: The pKi was greater than 11.00.

Q: How did the pKi turn out when `CC1(C)CCC(CN2CCN(c3ccc(C(=O)NS(=O)(=O)c4ccc(NCC5CCOCC5)c([N+](=O)[O-])c4)c(Oc4ccccc4-c4ccn[nH]4)c3)CC2)=C(c2ccc(Cl)cc2)C1` [Example 408, 4-(4-{[2-(4-chlorophenyl)-4,4-dimethylcyclohex-1-en-1-yl]methyl}piperazin-1-yl)-N-({3-nitro-4-[(tetrahydro-2H-pyran-4-ylmethyl)amino]phenyl}sulfonyl)-2-[2-(1H-pyrazol-5-yl)phenoxy]benzamide] was run?
A: The pKi was 8.94.

Q: How did the pKi turn out when `Cc1nc2cc(Oc3cc(N4CCN(Cc5ccccc5-c5ccc(Cl)cc5)CC4)ccc3C(=O)NS(=O)(=O)c3ccc(NCCCN4CCOCC4)c([N+](=O)[O-])c3)ccc2s1` [Example 24, 4-(4-((4′-chloro-1,1′-biphenyl-2-yl)methyl)piperazin-1-yl)-2-((2-methyl-1,3-benzothiazol-5-yl)oxy)-N-((4-((3-morpholin-4-ylpropyl)amino)-3-nitrophenyl)sulfonyl)benzamide] was run?
A: The pKi was 7.82.

Q: How did the pKi turn out when `CNc1cccc(Oc2cc(N3CCN(Cc4ccccc4-c4ccc(Cl)cc4)CC3)ccc2C(=O)NS(=O)(=O)c2ccc(NCC3CCOCC3)c([N+](=O)[O-])c2)c1` [Example 2, 4-(4-((4′-chloro-1,1′-biphenyl-2-yl)methyl)piperazin-1-yl)-2-(3-(methylamino)phenoxy)-N-((3-nitro-4-((tetrahydro-2H-pyran-4-ylmethyl)amino)phenyl)sulfonyl)benzamide] was run?
A: Its pKi is 7.50.
